The values that follow are results of earlier work, collected in patent publication US8809393B2, “Injectable preparations of diclofenac and its pharmaceutically acceptable salts” (Troikaa Pharmaceuticals Ltd, priority 2005, dated 2014).

This series relates to erythrocytes. Conditions: aqueous solution of 2% propylene glycol iso-osmotic with serum, in 45 min.

On to `CC(O)CO` (stereo not shown) [propylene glycol], for which the haemolysis of erythrocytes is reported as 100%.
